# No end group written: not given here.
# Legend:
# PAR-2 = test: FZI/0-PAR-2 AP competitive binding in Caco2 cells; set-up: species or system human
# Procedure: FIGS. 4A-4D. FZI/0-PAR-2 AP competitive binding experiments.
# FZI/0-PAR-2 AP competitive binding experiments. The activation of PAR-2 requires binding of either its tryptase-generated, cleaved N-terminal portion or the synthetic peptide equivalent, PAR-2 AP, to the receptor's extracellular loop 2 (ECL2) (47). To establish whether FZI/0 binds to the same receptor domain, competitive binding experiments were conducted in Caco2 cells. Cell monolayers were incubated with FITC-FZI/0 (2×10^−8M)) either in the presence of an excess of PAR-2 AP (10^−6M) or a scrambled peptide and then analyzed by fluorescence microscopy.
# [1] = test system: wild-type mouse intestinal tissues; test: Intestinal TEER in wild-type mice tissues
# Caco2 cell monolayers = test: PAR-2 AP-induced actin rearrangement in Caco2 cell monolayers; type: cell-based, human; settings: 10^−6M PAR-2 AP, Caco2, vs BSA
# Excerpt: FIGS. 5A to 5D. Actin cytoskeleton arrangement in Caco2 cells exposed to PAR2-AP (FIG. 5A), BSA (FIG. 5B), PAR2-AP+FZI/0 (FIG. 5C), or PAR-2 AP+FZI/1 (FIG. 5D).
# Effect of the Zot/zonulin inhibitor FZI/0 on PAR-2 AP-induced actin rearrangement. It has been recently reported that activation of PAR-2 receptor by PAR-2 AP promotes cytoskeletal reorganization (53). To establish whether this effect can be prevented by the synthetic Zot/zonulin peptide inhibitor, FZI/0, immunofluorescence studies were conducted in Caco2 cell monolayers. […] These cytoskeletal changes were blocked by the pre-incubation with 2×10^−6M FZI/0 (FIG. 5C), but not by the scrambled peptide FZI/1 (FIG. 5D). Therefore, PAR-2 AP and FZI/0 appear to bind to the identical structure on enterocytes.
Substance,binding to Caco2 cells (fluorescent particles) (PAR-2; FITC-labelled FZI/0 vs media control),"displacement of FITC-FZI/0 binding (PAR-2; FITC-FZI/0 2×10^−8M, excess of competitor (PAR-2 AP 10^−6M; 100×))",intestinal resistance (TEER) over time [1],actin cytoskeleton arrangement (Caco2 cell monolayers)
GGVLVQPG [FZI/0],significant number of fluorescent particles,,,
SLIGRL [PAR-2 AP],,significant reduction of FZI/0 immunofluorescent staining particles,comparable drop in intestinal resistance,dissolution of stress fibers
